Measured values as given in a melting point compilation (Tetko et al.; mined from patent text by program, amines drawn as free bases though some values may be those of a salt).

Compound | melting point [°C]
O=C(O)[C@@H]1CCCN1C(=O)CCCS | 157 to 158
CCN(CC)c1ccc2cc([N+](=O)[O-])c(=O)oc2c1 | 193 to 195
CN1CCN(c2ccc(C(=O)NCCCCCCCCCCCO[N+](=O)[O-])cn2)CC1 | 95 to 96
N#CSCCNc1ccccc1[N+](=O)[O-] | 112 to 113
N#Cc1cnn2c1N(C(=O)CN1CCC(Cc3ccccc3)CC1)CC=C2c1cc(Cl)ccc1Cl | 157 to 158
CC#CCOc1cc(Oc2ccc(F)c(F)c2)ncn1 | 110
N#Cc1c(Cl)nc2n(c1=O)CCS2 | 148 to 150
CCN(CC)CCNC(=O)c1cc(Cl)c(N)cc1OC1OCCO1 | 93 to 95
c1ccc(C2(N3CCC(n4c(OC5CCNCC5)nc5ccccc54)CC3)CCCCCC2)cc1 | 114 to 118
Nc1cc([N+](=O)[O-])cc2c1CCCC2 | 77
Cn1c(=O)c2[nH]c(CCCC(=O)O)nc2n(C)c1=O | 254 to 255
CNC(=O)N(N(CCCl)S(C)(=O)=O)S(C)(=O)=O | 146 to 148
COc1cc(Nc2c(C#N)cnc3cc(-c4ccc(CN(C)C)cc4)sc23)cc(OC)c1OC | 199 to 201
Fc1cc(Cl)ccc1/C=C/c1nc(COc2ccc(-c3nc(Cn4ccnc4)co3)cc2)co1 | 166 to 167
FC(F)(F)c1cc(Cl)c(-n2ncc(-c3ncc[nH]3)n2)c(Cl)c1 | 282 to 283
CN(C(=O)CBr)c1cccc(-c2ccnc3c(C(=O)c4ccccc4)cnn23)c1 | 175 to 177

Compound | melting point [°C]
Cc1cc(C)n2nc(NS(=O)(=O)c3ccccc3[N+](=O)[O-])nc2n1 | 255 to 256
C1=CC(n2nc(-c3cccc4ccccc34)cc2-c2ccccc2)(n2nc(-c3cccc4ccccc34)cc2-c2ccccc2)CC=C1c1ccccc1 | 264
CCOC(=O)C(=NOC1CCCCC1)c1csc(N)n1 | 125 to 126
COC(CNC(=O)C=CC(=O)O)OC | 91 to 92
Cc1cc(O)c(C(C)(C)C)cc1C=O | 168 to 170
CCOc1ccc(C23CNCC2C3)cc1 (configuration not stated) | 48 to 49
Nc1cc(Cl)c(NCCO)cc1[N+](=O)[O-] | 130 to 131
Cn1c([N+](=O)[O-])cnc1-c1nnc2cccnn12 | 235 to 237
CCON1C(C)(C)CC(O)CC1(C)C | 86 to 88
CC1(C)CC(N)(C(N)=O)CC(C)(C)N1 | 142 to 144
CN(C)C(=S)Oc1ccc(Br)cc1C=O | 141 to 143
CC1(C)COC(=O)N1c1nc(-c2ccc(C#N)cc2)c(F)s1 | 177 to 178
Cc1noc(NS(=O)(=O)c2ccc(NC(=O)NC3CCCCC3)cc2)c1C | 190 to 195
Cn1c(Cl)cnc1C(OC(=O)OC(C)(C)C)c1cc(F)ccc1F (configuration not stated) | 125 to 126
Fc1ccc(Cn2c(NC3CCN(CCNc4nc5cccnc5s4)CC3)nc3ccccc32)cc1 | 204

Now from value to molecule:

melting point [°C] | Compound
169 to 171 | NC1=NS(=O)N=C1NCCCN(Cc1cccs1)c1ccccn1 (configuration not stated)
70.7 to 71.2 | CC(C)(C)[C@H](O)[C@@H](C#N)c1ccccc1 (racemic)
167 to 169 | C=CCOC(=O)c1cccc(NC(=O)NCC(=O)Nc2ccccc2C(=O)c2ccc(OC)cc2)c1
217 to 219 | CCCCc1nc(NC(=O)Nc2ccccc2)[nH]c(=O)c1Cc1ccc(-c2ccccc2C(=O)OC)cc1
85 to 87 | CCCOc1cccc(OCCC)c1C(=O)Nc1cc(C(C)(C)C)no1
139 to 140 | COCOc1ccccc1-c1cc(-c2cccc(CN=[N+]=[N-])c2)c(C#N)c(NC(=O)c2cccs2)n1
97 to 100 | CCNC(C)CN1CCc2c(c(=O)oc3cc(OC)ccc23)C1 (configuration not stated)
122 | O=C(Cc1ccccc1O)N1CCOCC1
164 to 165 | Nc1cccc(Br)c1-c1ncc[nH]1
111 to 112 | Cc1cc(NC(=O)CCCCCBr)ccc1O
137 to 140 | CC(=O)C(C(C)=O)C(=O)NS(=O)(=O)c1ccc(C)cc1
170 | COc1cc(O)c(Br)c2cc(-c3ccc(O)cc3)oc12
141 to 145 | Cc1ccc(S(=O)(=O)Oc2c(C(=O)c3ccc(S(C)(=O)=O)cc3Cl)cnn2C)cc1
178 to 180 | CCCOc1ccc2nc(NC(=O)OC)sc2c1
288 to 289 | Cn1c(-c2ccc(C(=O)O)cc2)cc2cc3c(cc21)C(C)(C)CCC3(C)C
174 to 177 | COc1ccc(F)cc1C(C)(C)CC(O)(Cc1ccc(C(=O)O)cc1)C(F)(F)F (configuration not stated)
130 to 133 | Cc1cc2c(-c3ccccc3)noc2c2c1OC(CO)C2 (configuration not stated)
84 to 86 | OC1(c2cccc(OCc3ccccc3)c2)CCOCC1
195 to 197 | O=C(O)c1ccc(Oc2ccc([N+](=O)[O-])cc2)cc1O
150 | CC(C)OC(=O)c1cccc(C(O)(c2ccc3c(c2)c(-c2cccc(Cl)c2)cc(=O)n3C)c2cncn2C)c1 (configuration not stated)
165 to 166 | COc1ccc(-c2csc(N(C)c3cc4ccccc4cn3)n2)cc1OC

melting point [°C] | Compound
192 to 194 | O=C(Nc1ccc(-c2cnc(-c3ccc(NC(=O)C4CCCCC4)cc3)[nH]2)cc1)C1CCCCCC1
108 to 124 | CC(C(N)=O)c1ccc(C(=O)c2cccs2)cc1 (configuration not stated)
100 to 106 | CCOC(=O)C(Cc1ccc(OCC=C(C)c2ccc(-c3ccc(C(C)=CCOc4ccc(CC(OCC)C(=O)OCC)cc4)cc3)cc2)cc1)OCC (configuration not stated)
154 to 156 | CC(=O)Nc1ccc(OCCCN2C(=O)c3ccccc3C2=O)cc1
84 to 87 | O=P(O)(CCc1ccccc1)CCc1ccccc1
184 | Cc1cccc(NC(=O)NCC(=O)N(c2ccccc2)c2cccc(Cl)c2)c1
93 to 94.5 | CCOP(=O)(Cc1ccc(C(=O)N2CCc3ccccc32)cc1)OCC
240 to 245 | CC(C)(C)C(=O)c1sc(NC(=O)c2ccncc2)nc1-c1ccco1
204 to 209 | Nc1sc2cccnc2c1N
135 to 138 | Cc1ccc2c(NCc3ccc(NC(=O)c4ccc(F)cc4)cc3)nc(NC3CCN(Cc4ccccc4)CC3)nc2c1
243 to 244 | COc1cc(Nc2c(C#N)cnc3cc(-c4ccc5ccccc5c4)ccc23)c(Cl)cc1Cl
68 to 78 | COC(=O)c1ccc(OC)c2c1CCO2
73 | O=C(c1ccc(Cl)cc1)C(Br)CCCl (configuration not stated)
153 to 154 | CN(c1cccc2cc(C3=NCC(CCO)S3)[nH]c12)S(=O)(=O)c1ccccc1C(F)(F)F (configuration not stated)
152 to 154 | O=C(NCc1cccs1)c1cc2ccnc(N(Cc3ccccc3)Cc3ccccc3)c2[nH]1
159 to 161 | Cc1c(-c2ccccc2)noc1-c1ccccc1C(=O)O
81 to 83 | CC(=NOC(C)(C)C)c1cnc(NC(=O)[C@H](CC2CCCC2)c2ccc(S(C)(=O)=O)cc2)cn1
293 to 295 | c1ccc2nc(-c3cc4nccnc4[nH]3)ccc2c1
160 to 161 | Cc1oc(-c2ccccc2)nc1COc1ccc(COc2ccc(Cl)cc2CC(=O)O)cc1
151 | CCCC1=NN(c2ccccn2)C(=O)C1=CNc1ccccc1CC
